Laboratory results taken from patent US20220289732A1, “HETEROCYCLIC WDR5 INHIBITORS AS ANTI-CANCER COMPOUNDS” (NOVARTIS AG, priority 2019, published 2022).
pIC50: −log10 of the molar value. Like-named read-outs stand apart in the source and are kept apart here.

Key:
[1] = target: WDR5 (Homo sapiens, UniProt P61964); experiment: WDR5 HTRF binding assay; conditions: read-out: (a) WDR5 HTRF Pep Val v.1[Inhibitor/IC50]Qualified AC50
Procedure: The compounds were serially diluted 3-fold in DMSO to obtain a total of twelve concentrations. Then the test compounds at each concentration (90 nL of each) were transferred by Mosquito in the white Proxiplate plus 384-well microplate (Perkin Elmer). The assay mixture (typical 9 μL) containing 6 nM WDR5 and 20 nM Biotin-MLL1 WIN peptide (3762-3773) in the assay buffer (25 mM Hepes, pH7.5, 0.05% Tween 20, 2 mM DTT, 100 mM NaCl, 0.1% BSA) were added to the wells. For counter assay, a 9 μL solution of 15 nM Biotin-PEG-His peptide was added into the wells. After 20 min incubation at rt, a 3 μL detection solution containing 14 μg/ml Phycolink Streptavidin Allophycocyanin (Prozyme), 2 nM Anti-His-Eu (PerkinElmer) in assay buffer was then added. After 1 hr incubation, the plate was read in the EnVision reader (PerkinElmer) using the HTRF protocol (The protocol set-up: Lance/Delfia dual enhancer mirror, excitation at 320 UV2 (TRF), emission at APC665, 2nd emission at EuropiμM 615). HTRF signals were normalized based on the reading coming from the positive (maximum signal control) and negative controls (minimum signal control) to give percentage of activities left. The data were then fit to a dose response equation using the program Helios (Novartis) to get the IC50 values. Helios is a Novartis in-house assay data analysis software using the methods described by Normolle, D. P., Statistics in Medicine, 12:2025-2042 (1993); Formenko, I. et al., Computer Methods and programs in Biomedicine, 82, 31-37 (2006); Sebaugh, J. L., Pharmaceutical Statistics, 10:128-134 (2011); Kelly, C. et al., Biometrics, 46(4):1071-1085 (1990); and Kahm, M, et al., Journal of Statistical Software, 33(7):(2010) (grofit: Fitting Biological Growth Curves with R, pages 1-21, available at http://www.jstatsoft.org/).

[2] = target: wild type MLL1 four-member complex (MLL1-4C) (Homo sapiens, UniProt P61964); experiment: MLL1 LC-MS assay (SAH production); type: biochemical; conditions: read-out: (b) MLL LCMS Peptide Val.v.1 Qualified AC50
Procedure: The compounds of the present disclosure were serially and separately diluted 3-fold in DMSO to obtain a total of eight or twelve concentrations. Then the test compounds at each concentration (120 nL of each) were transferred by Mosquito into white Proxiplate plus 384-well microplate (PerkinElmer). Solutions (6 μL) of 60 nM wild type MLL1 four-member complex (MLL1-4C) and 5 μM SAM in the reaction buffer (20 mM Tris-HCl, pH8.0, 0.01% Tween 20, 1 mM DTT, 10 mM MgCl2, 0.01% BSA) were added to the wells that were then incubated with the test compound for 20 min. A 6 μL solution of 20 μM of the peptide substrate H3K4me0 (histone H3[1-21]-Biotin) in the reaction buffer was added to initiate each reaction. The final components in the reaction solution include 30 nM MLL1-4C, 2.5 μM SAM, and 10 μM H3K4me0 with varying concentration of the compounds. A positive control consisted of 30 nM MLL1-4C, 2.5 μM SAM, and 10 μM substrate in the absence of the test compound, and a negative control consisted of 2.5 μM SAM, and 10 μM substrate only. Each reaction was incubated at rt for 120 min, then stopped by addition of 3 μL per of quench solution (2.5% TFA with 320 nM d4-SAH). The reaction mixture was centrifuged (Eppendorf centrifuge 5810, Rotor A-4-62) for 2 min at 2000 rmp. The SAH production from the enzymatic assays were monitored by LC-MS/MS on an API 4000 triple quadrupole mass spec with Turbolon Spray (Applied Biosystem) coupled with Prominenece UFLC (Shimazu). The level of SAH production were then normalized based on the values coming from the positive and negative controls to give percent enzyme activities. The data were then fit to a dose response equation using the program Helios (Novartis) to get the IC50 values of the test compound. Helios is a Novartis in-house assay data analysis software using the methods described by Normolle, D. P., Statistics in Medicine, 12:2025-2042 (1993); Formenko, I. et al., Computer Methods and programs in Biomedicine, 82, 31-37 (2006); Sebaugh, J. L., Pharmaceutical Statistics, 10:128-134 (2011); Kelly, C. et al., Biometrics, 46(4):1071-1085 (1990); and Kahm, M, et al., Journal of Statistical Software, 33(7):(2010) (grofit: Fitting Biological Growth Curves with R, pages 1-21, available at http://www.jstatsoft.org/).

[3] = system: MV4-11 cells; experiment: MV4-11 6-day cell growth CTG (CellTiter-Glo) assay; type: cell-based; conditions: 6 days, read-out: (c) MLL/WDR5 cell proliferation assay//MLL/WDR5 proliferation MV4:11 Qualified AC50
Procedure: MV4-11 6-Day Cell Growth CTG (CellTiter-Glo) Assay
Acute myeloid leukemia cell MV4-11 (ATCC® CRL-9591™) was cultured with RPMI 1640 medium (Thermo Fisher Scientific, cat #11875) supplemented with 10% FBS (Thermo Fisher Scientific, cat #10099141) in humidified incubator at 37° C., 5% CO2. To assess the effect of WDR5 inhibitor on cell growth, the compound of the present invention was dissolved in DMSO and serially diluted at 1:3 for 12 points starting from 10 mM then 200 nL for the replicate of each dose per well was dispensed to Viewplate-384 Black (Perkin Elmer). Exponentially growing MV4-11 cells were seeded at the density of 300 cells per well in 40 μL to the plate, so the final compound working concentration starts from 50 μM. After 6 days, 40 μL CellTiter-Glo (Promega, cat #G7573) was added into the cell culture well and luminescence was read with Envision (Perkin Elmer) to determine the viable cells. The percentage inhibition was calculated against the samples treated with DMSO only and the data were used for dose response curve fitting in GraphPad Prism to get the IC50 of representative compound of present invention, which reflects the inhibition of WDR5 activity in the proliferation of MV4;11.

SMILES | pIC50 [1] | AC50 [2] [nM] | AC50 ([3]; Homo sapiens, MV4-11, 144 h) [nM] | AC50 [3] [nM]
CCOc1cc([C@H](C)N2CCc3c(Cl)cc(Cn4ccnc4NC)cc3C2=O)ncc1C#N (single isomer, unassigned) [Example 3] | > 8.00 | 10 to 1000 | 10 to 1000 | 
CNc1nccn1Cc1cc(CN2CCOCC2)c2c(c1)C(=O)N([C@@H](C)c1cc(OC)c(F)cn1)CC2 (single isomer, unassigned) [Example 7] | > 8.00 | 10 to 1000 | 10 to 1000 | 
CCOc1cc([C@H](C)N2CCc3c(CN(C)C)cc(Cn4ccnc4NC)cc3C2=O)ncc1F (single isomer, unassigned) [Example 19] | 6.00 to 8.00 | 10 to 1000 | 10 to 1000 | 
CNc1nccn1Cc1cc(CN2CC(O)C2)c2c(c1)C(=O)N([C@@H](C)c1cc(OC)c(F)cn1)CC2 (single isomer, unassigned) [Example 51] | > 8.00 | 10 to 1000 | 10 to 1000 | 
CNc1nccn1Cc1cc2c(c(-c3cc([C@@H](C)O)cnc3Cl)c1)CCN(Cc1ccc(F)c(OC)c1)C2=O (single isomer, unassigned) [Example 75] | > 8.00 | 10 to 1000 | 10 to 1000 | 
CNc1nccn1Cc1cc2c(c(-c3cc([C@H](C)O)cnc3Cl)c1)CCN(Cc1ccc(F)c(OC)c1)C2=O (single isomer, unassigned) [Example 76] | > 8.00 | 10 to 1000 | 10 to 1000 | 
CNc1nccn1Cc1cc2c(c(C3CC3)c1)CCN([C@@H](C)c1cnc(F)c(OC)c1)C2=O (single isomer, unassigned) [Example 78] | > 8.00 | 10 to 1000 | 10 to 1000 | 
CCOc1cc([C@H](C)N2CCc3c(cc(Cn4ccnc4NC)cc3N3CCCC3)C2=O)ncc1F (single isomer, unassigned) [Example 88] | > 8.00 | 10 to 1000 | 10 to 1000 | 
CNc1nccn1Cc1cc2c(c(N3CC(OC)C3)c1)CCN([C@@H](C)c1cc(OC)c(F)cn1)C2=O (single isomer, unassigned) [Example 90] | 6.00 to 8.00 | 10 to 1000 | 10 to 1000 | 
CNc1nccn1Cc1ccc2c(c1)C(=O)N([C@@H](C)c1cnc(F)c(OC)c1)CC2 (single isomer, unassigned) [Example 94] | 6.00 to 8.00 | 10 to 1000 | 10 to 1000 | 
CNc1nccn1Cc1ccc2cnn(C(C)c3cnc(F)c(OC)c3)c(=O)c2c1 (stereo not shown) [Example 109, 2-(1-(6-fluoro-5-methoxypyridin-3-yl)ethyl)-7-((2-(methylamino)-1H-imidazol-1-yl)methyl)phthalazin-1(2H)-one] | 6.00 to 8.00 | 10 to 1000 |  | 
CNc1nccn1Cc1ccc2ncn(C(C)c3cnc(F)c(OC)c3)c(=O)c2c1 (stereo not shown) [Example 110, 3-(1-(6-fluoro-5-methoxypyridin-3-yl)ethyl)-6-((2-(methylamino)-1H-imidazol-1-yl)methyl)quinazolin-4(3H)-one] | 6.00 to 8.00 | 10 to 1000 |  | 
CCOc1cc(C(C)N2CCc3c(cc(CCN(C)CC)cc3C3=CCNCC3)C2=O)ncc1C#N (stereo not shown) [Example 159, 4-ethoxy-6-(1-(7-(2-(ethyl(methyl)amino)ethyl)-1-oxo-5-(1,2,3,6-tetrahydropyridin-4-yl)-3,4-dihydroisoquinolin-2(1H)-yl)ethyl)nicotinonitrile] | 6.00 to 8.00 | 1000 to 25000 |  | 

Continued, in another order:

pIC50 [1] | AC50 [2] [nM] | SMILES | AC50 ([3]; Homo sapiens, MV4-11, 144 h) [nM] | AC50 [3] [nM]
> 8.00 | 10 to 1000 | CCOc1cc(C(C)N2CCc3c(cc(Cn4ccnc4C)cc3-c3cn(C)nc3C)C2=O)ncc1C#N (racemic) [Example 261, 6-(1-(5-(1,3-dimethyl-1H-pyrazol-4-yl)-7-((2-methyl-1H-imidazol-1-yl)methyl)-1-oxo-3,4-dihydroisoquinolin-2(1H)-yl)ethyl)-4-ethoxynicotinonitrile] | 10 to 1000 | 
> 8.00 | 10 to 1000 | CCOc1cc(C(C)N2CCc3c(cc(Cn4ccnc4C)cc3-c3cn(C)nc3C)C2=O)ncc1C#N (racemic) [Example 262, 6-(1-(5-(1,3-dimethyl-1H-pyrazol-4-yl)-7-((2-methyl-1H-imidazol-1-yl)methyl)-1-oxo-3,4-dihydroisoquinolin-2(1H)-yl)ethyl)-4-ethoxynicotinonitrile] |  | < 10
> 8.00 | 10 to 1000 | CCOc1cc([C@H](C)N2CCc3c(cc(Cn4ccnc4C)cc3-c3nc(C)nn3C)C2=O)ncc1C#N (single isomer, unassigned) [Example 264] | 10 to 1000 | 
> 8.00 | 10 to 1000 | CCOc1cc([C@H](C)N2CCc3c(cc(Cn4ccnc4C)cc3-n3nc(C)nc3C)C2=O)ncc1C#N (single isomer, unassigned) [Example 265] | 10 to 1000 | 
4.60 to 6.00 | 1000 to 25000 | CCOc1cc([C@H](C)N2CCc3c(cc(Cn4ccnc4C)cc3[C@@H]3CCCN3C)C2=O)ncc1C#N (single isomer, unassigned) [Example 266] | 1000 to 25000 | 
> 8.00 | 10 to 1000 | CCOc1cc([C@H](C)N2CCc3c(cc(Cn4ccnc4C)cc3[C@H]3CCCN3C)C2=O)ncc1C#N (single isomer, unassigned) [Example 267] | 10 to 1000 | 
6.00 to 8.00 | 10 to 1000 | CCOc1cc(C(C)N2CCc3c(cc(CCN(C)CC)cc3-n3cccn3)C2=O)ncc1C#N (stereo not shown) [Example 209] |  | 
> 8.00 | 10 to 1000 | CCOc1cc(CN2CCc3c(cc(Cn4ccnc4C)cc3-c3cc(C)nn3C)C2=O)ncc1C#N [Example 300] |  | 
> 8.00 | 10 to 1000 | CCOc1cc(CN2CCc3c(cc(Cn4ccnc4C)cc3-c3cn(S(C)(=O)=O)nc3C)C2=O)ncc1C#N [Example 301] |  | 
> 8.00 |  | CCOc1cc([C@H](C)N2CCc3c(cc(Cn4ccnc4C)cc3-c3c[nH]nc3C)C2=O)ncc1C#N [Example 302] |  | 
